# Values of other authors as cited in US20200030399A1, “HERBAL COMPOSITIONS OF CALIFORNIA POPPY AND METHOD FOR THE TREATMENT OF SLEEP AND DREAM-RELATED DISORDERS” (MONDIAS NATURELS INC., priority 2017, published 2020).
# Experiments:
# [1] = tested on: dexamphetamine produced mortality; settings: mice
# [2] = tested on: stereotyped behaviour effects of dexamphetamine; settings: mice
# [3] = tested on: myorelaxant effects; settings: mice
# [4] = tested on: pentetylenetetrazole; settings: mice
# [5] = tested on: anticholinergic effects of Oxotremorine; settings: mice
# [6] = tested on: acetic acid writhing; settings: mice; doses not given; dose-response for the extract
# [7] = tested on: reserpine-induced ptosis, akinesia or hypothermia; settings: mice
compound,measurement,setting,value
CN(C)CCCN1c2ccccc2Sc2ccc(Cl)cc21 [Chlorpromazine],protective effect against dexamphetamine produced mortality,[1],a protective effect was observed
same,stereotyped behaviour effects of dexamphetamine,[2],significantly decreased
"O=C(O)C1N=C(c2ccccc2)c2cc(Cl)ccc2NC1=O (centres unmarked) [Clorazepate, Clorazepate dipotassium]",myorelaxant effects,[3],Dose-dependent anticonvulsant and myorelaxant effects
same,anticonvulsant effects,[4],Dose-dependent anticonvulsant and myorelaxant effects
CN(C)CCCN1c2ccccc2CCc2ccccc21 [Imipramine],effect against the anticholinergic effects of Oxotremorine,[5],significantly reduced
CC(=O)Oc1ccccc1C(=O)O [acetylsalicylic acid],Protection against writing (acetic acid writhing),[6],60%
CN(C)CCC=C1c2ccccc2CCc2ccccc21 [amitryptiline],"effect against reserpine-induced ptosis, akinesia or hypothermia",[7],significantly reduced ptosis and hypothermia
CC(=O)Nc1ccc(O)cc1 [paracetamol],Protection against writing (acetic acid writhing),[6],60%
